Molecules are shown by their SMILES. Several values for one entry are separate records, joined by “and”; a condition that tells them apart may be missing. Equal entries are not always repeated. Entries after “also recorded” stand apart in the source; their conditions may differ.

The text below walks through data of article PMC5910040, “An Antarctic Extreme Halophile and Its Polyextremophilic Enzyme: Effects of Perchlorate Salts” (Astrobiology, 2018).

For assay [1], the system named is Halobacterium sp. NRC-1. Briefly: Aerobic growth rate of Halobacterium sp. NRC-1 with added salts. The note with it: Mg2+ added. Format: cell-based. The procedure:
(§1) For aerobic growth, cultures of halophiles were shaken in the light in test tubes at 42°C in CM^+ for Halobacterium sp. NRC-1 and at 37°C in ATCC 1682 media for H. lacusprofundi (Berquist et al., [2007]), adjusted to the desired concentration of NaClO4, MgCl2, and Mg(ClO4)2. For anaerobic growth, cultures were grown in the dark without shaking, essentially as described previously (Oren et al., [2014]). OD600 was recorded with a Spectronic 200 (ThermoFisher Scientific, Waltham, MA) test tube reader. Growth rates were calculated by using the slope of a line of regression calculated from early to mid-log phase.

Assay [2] relates to Halorubrum lacusprofundi. Briefly: Aerobic growth rate of Halorubrum lacusprofundi with added salts. Format: cell-based. The method, then:
as §1

The target of assay [3] is T1, H. lacusprofundi β-galactosidase enzyme (Halorubrum lacusprofundi, UniProt B9LW38).
T1 construct: made in house; host or cells: Halobacterium sp; NRC-1 (pRK42)
T1 sequence (B9LW38 1-700): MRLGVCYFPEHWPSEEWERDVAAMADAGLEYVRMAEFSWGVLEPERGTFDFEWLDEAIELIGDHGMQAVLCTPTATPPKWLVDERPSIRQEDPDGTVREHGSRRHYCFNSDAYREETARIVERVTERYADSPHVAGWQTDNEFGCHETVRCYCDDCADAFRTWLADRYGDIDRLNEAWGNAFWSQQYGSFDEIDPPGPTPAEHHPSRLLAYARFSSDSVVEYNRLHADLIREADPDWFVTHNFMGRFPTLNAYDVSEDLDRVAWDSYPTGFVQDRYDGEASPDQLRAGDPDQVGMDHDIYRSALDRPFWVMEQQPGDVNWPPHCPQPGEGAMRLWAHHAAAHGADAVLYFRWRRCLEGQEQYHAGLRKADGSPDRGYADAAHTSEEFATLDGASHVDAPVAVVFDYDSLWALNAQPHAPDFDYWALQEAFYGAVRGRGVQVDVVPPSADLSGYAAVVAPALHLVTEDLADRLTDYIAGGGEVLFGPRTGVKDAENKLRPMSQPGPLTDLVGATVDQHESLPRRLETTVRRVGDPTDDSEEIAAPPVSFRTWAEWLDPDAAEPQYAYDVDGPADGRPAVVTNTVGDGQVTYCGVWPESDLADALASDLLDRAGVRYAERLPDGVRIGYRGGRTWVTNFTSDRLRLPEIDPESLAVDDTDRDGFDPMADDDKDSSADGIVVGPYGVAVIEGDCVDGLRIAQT
Briefly: Steady-state kinetic inhibition of purified β-galactosidase (ONPG). It is filed as biochemical. As to conditions: for type of inhibition: Lineweaver-Burk / Dixon plots. The method, then: To purify β-galactosidase, cultures of Halobacterium sp. NRC-1 (pRK42) (Karan et al., [2013]) were grown to late-log phase (OD600 ∼ 1.0), harvested, resuspended in binding buffer (20 mM phosphate buffer, 2.0 M NaCl, 10% (v/v) glycerol, 30 mM imidazole, pH 7.4), and lysed by sonication (Model 50 Sonic Dismembrator, ThermoFisher Scientific, Waltham, MA). Cell debris was removed by centrifugation (25,000g, 4°C, 10 min) in an Eppendorf 5417C centrifuge, and resulting crude extract was filtered through a 0.2 μm polyethersulfone filter (ThermoFisher Scientific, Waltham, MA). The proteins were purified by using Nickel HisTrap HP Columns (GE Healthcare, Chicago, IL), equilibrated, and washed with binding buffer, and eluted sequentially with 2 M NaCl, 100 mM phosphate buffer (pH 7.4) supplemented with 40, 80, 100, 200, and 500 mM imidazole.
Column fractions were tested for activity with o-nitrophenyl-β-D-galactopyranoside (ONPG, ThermoFisher Scientific, Waltham, MA). Active fractions were combined and protein concentration estimated by absorption at 280 nm with a Shimadzu UV-1601 spectrophotometer (Shimadzu Corporation, Kyoto, Japan). To confirm purity, the protein was analyzed by 10% SDS-PAGE followed by staining with Coomassie Blue (Millipore Sigma, Billerica, MA).
The inhibitory properties of Mg^2+ and ClO4^− ions on the β-galactosidase enzyme were tested through steady-state kinetics with a Shimadzu UV-1601 spectrophotometer. The assay solution containing 10 μg/mL enzyme was preincubated at 50°C followed by addition of ONPG at three different concentrations (1, 2.5, and 5 mM), and absorption was recorded at 420 nm. V0, the Michaelis constant (Km), as well as Vmax, were determined with UV Probe ver. 4.23 software (Shimadzu Corporation, Kyoto, Japan). kcat was calculated from given values of Km and Vmax. After the kinetic experiments were recorded, Lineweaver-Burk plots for each concentration of the inhibitory ion were used to determine whether the inhibition was competitive or noncompetitive. KI was determined by using Dixon plots, which use the reciprocal velocity of multiple steady-state kinetic experiments at multiple substrate and inhibitor concentrations to extrapolate the concentration of inhibitor that results in half-maximal inhibition (Yoshino and Murakami, [2009]). All experiments were run in triplicate and averages used for kinetic analysis.

Another assay deals with Methanosarcina sp. Also on record: method as in Shcherbakova et al., 2015. The note with it: 9.8 mM NaClO4; ref Shcherbakova et al., 2015; cited from earlier work.
Assay [4] concerns Methanobacterium veterum MK4 VKM B-2440. Also on record: method as in Shcherbakova et al., 2015. As to conditions: 9.8 mM NaClO4; ref Shcherbakova et al., 2015; cited from earlier work.
In assay [5] the test system is Halorubrum lacusprofundi. Briefly: Anaerobic growth assay of Halorubrum lacusprofundi. It is filed as cell-based. As to conditions: 40 mM (0.04 M) perchlorate, dark, no oxygen, 8 days. The procedure: as §1
Assay [6] has as its system Halobacterium sp. NRC-1. As to the kind of experiment: Anaerobic growth assay of Halobacterium sp. NRC-1. As to conditions: 40 mM NaClO4, dark, no oxygen, 8 days. It is filed as cell-based. The method, then: as §1
The subject of assay [7] is Methanobacterium articum M2 VKM B-2372. Also on record: method as in Shcherbakova et al., 2015. The note with it: 9.8 mM NaClO4; ref Shcherbakova et al., 2015; cited from earlier work.
Another assay deals with methanogens. Also on record: method as in Kral et al., 2004. The note with it: grown on Mars soil simulant; ref Kral et al., 2004; cited from earlier work.

With `[Mg+2]` [MgCl2, magnesium chloride], the “concentration up to which no significantly deleterious effect on growth” value in the assay on Halobacterium sp. NRC-1 [1] is recorded as around 1 M. Besides, the “highest concentration at which a measurable growth rate was recorded” value in the assay on Halorubrum lacusprofundi [2] (ATCC 1682 medium) is 1.4 M. Also, the inhibition of growth at 1.2 M with Halorubrum lacusprofundi [2] (Halorubrum lacusprofundi, 1.2 M Mg2+ (MgCl2 added), read-out: decrease in growth rate) was found to be 40%. Besides, the inhibition of growth at 1.4 M in the assay on Halorubrum lacusprofundi [2] (Halorubrum lacusprofundi, 1.4 M Mg2+ (MgCl2 added), read-out: decrease in growth rate) was determined as 80%. Besides, the “concentration up to which a substantial growth rate is retained / no significantly deleterious effect” value with Halorubrum lacusprofundi [2] (MgCl2 added, listed as Mg^2+) is 0.9 M and ~1 M. For the same molecule, the inhibition at 250000 µM in [3] (0.5 M Na+ replaced with 0.25 M Mg2+ using magnesium chloride, read-out: decrease in catalytic efficiency) worked out at 70%. The type of inhibition result is listed as “competitive inhibitor” in [3] and “competitive inhibition” in assay [3] (listed as Mg^2+).

Turning to `[O-][Cl+3]([O-])([O-])O` [NaClO4, sodium perchlorate], the reduction in methanogenesis (in the assay on Methanosarcina sp.; in assay [4]; in assay [7]) was 80% throughout. Moreover, the “anaerobic growth with perchlorate” value was “able to grow anaerobically” with Halorubrum lacusprofundi [5] and “incapable of anaerobic growth” in the assay on Halobacterium sp. NRC-1 [6]. In addition, the type of inhibition entry in assay [3] (listed as perchlorate) was “very weak noncompetitive inhibitor”; in [3] (listed as perchlorate ions), “noncompetitive inhibitor”; in assay [3] (listed as sodium perchlorate) it was “noncompetitive inhibition”. Further, the “protein precipitation (salting-out)” value in assay [3] (at the concentrations tested) is given as “no protein precipitation”.

`[O-][Cl+3]([O-])([O-])O` [Mg(ClO4)2, magnesium perchlorate]: in the assay on methanogens, the “concentration up to which methanogens metabolize” value is reported as “up to 0.06 M”. In addition, in [3], the type of inhibition result is reported as “mixed inhibitor; also recorded: mixed inhibition”.
